{
  "source": "patent US11744889B2",
  "about": "“Skin microenvironment targeted delivery for promoting immune and other responses” (University of Pittsburgh—Of the Commonwealth System of …, priority 2016, dated 2023)",
  "key": {"epidermal cells": {"tested_on": "epidermal cells", "conditions": "5 mg/g of CMC, about 140 μg per array; 72 hours of exposure", "experimental": "Cytoxan® was integrated at a concentration of 5 mg/g of CMC, enabling delivery of approximately about 140 μg per array. […] Living human skin organ cultures were used to assess the cytotoxicity of Cytoxan®. Cytoxan® was delivered by application of arrays to skin explants as we previously described. Arrays and residual material were removed 5 minutes after application, and after 72 hours of exposure, culture living skin explants were cryo-sectioned and fixed."}, "B16 melanoma": {"tested_on": "B16 melanoma", "assay": "Treatment of established B16 skin tumors with MNAs", "conditions": "MNA once weekly for three weeks; for survival: untreated 100% mortality", "experimental": "B16 skin tumors were established in normal mice by injection. Visible established cutaneous tumors were treated once weekly for three weeks with MNAs containing either doxorubicin alone, Poly(I:C) alone, or doxorubicin and Poly(I:C) incorporated into the same MNA. The doxorubicin dose chosen corresponds to an MNA dose that induces apoptosis in human skin without causing necrosis. Tumor growth and survival were measured regularly for the duration of the study."}, "[1]": {"assay": "Dye release from MNAs inserted into 4% agar test-gels", "format": "physicochemical", "conditions": "dually loaded MNA", "source_text": "To illustrate the delivery of multiple drugs with distinct release kinetics, MNAs were fabricated to delivery two distinct cargos by distinct release kinetics. Specifically, MNAs were fabricated to release the marker Toluidine Blue in an initial burst, followed by a sustained release of the marker FD&C Red40. Dyes were directly loaded in the MNA scaffold matrix (in this case CMC) of the needle tips and in some cases a second dye, encapsulated in a sustained release polymer was layer directly below. MNAs were inserted into 4% agar test-gels and removed after 1 min.\nImages of dye diffusion were collected at the indicated time points (FIG. 39A). As shown in FIGS. 39A-C, FD&C Red40 (FIG. 39A) and toluidine blue (FIG. 39B), tracer dyes were tip-loaded in MNAs for immediate release. Alternatively, MNAs were fabricated with toluidine blue tip-loaded and FD&C Red40 encapsulated in a sustained release polymer (FIG. 39C). MNAs were inserted into 4% agar test-gel and removed after 1 min. Images were collected at the indicated time-points. Tip-loaded cargos were rapidly released from the MNAs and dispersed progressively in the gel (FIG. 39A and B). […] Upper panels depict images of microneedles from MNAs before application. The middle images are the imprints of the arrays 1 minute after application and MNA removal. Lower panels depicted the indicated representative magnified images at the indicated time points."}, "[2]": {"tested_on": "OVA-specific CTL activity", "assay": "OVA-specific CTL activity in vivo after CMC-microneedle array immunization", "conditions": "mice immunized on ears with pyramidal arrays, boosted one week later"}, "NK1R [3]": {"molecular_target": "T1, NK1R (Mus musculus, UniProt P30548)", "T1 construct": "from tissue", "T1 sequence (P30548 whole entry)": "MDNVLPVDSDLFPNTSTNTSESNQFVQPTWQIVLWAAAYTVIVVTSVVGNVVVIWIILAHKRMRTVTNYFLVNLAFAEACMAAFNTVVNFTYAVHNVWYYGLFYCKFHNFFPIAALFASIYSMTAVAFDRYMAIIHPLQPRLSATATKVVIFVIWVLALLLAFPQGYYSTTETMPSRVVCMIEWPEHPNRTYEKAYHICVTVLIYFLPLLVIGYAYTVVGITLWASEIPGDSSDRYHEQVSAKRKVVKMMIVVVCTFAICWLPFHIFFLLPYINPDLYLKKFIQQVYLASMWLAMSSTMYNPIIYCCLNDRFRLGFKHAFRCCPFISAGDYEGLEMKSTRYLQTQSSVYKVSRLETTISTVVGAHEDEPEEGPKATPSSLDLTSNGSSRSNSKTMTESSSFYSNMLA", "assay": "Histology of skin and skin draining lymph nodes of B6-WT mice sensitized with DNCB with or without SarSP", "format": "in vivo", "source_text": "(A & C: H and E, 200×; Insets, 1,000×; B & D: TB, 200×; Insets 1,000×; NT refers to non-treated mice.)\nThe effect of different treatments in B6-WT mice was compared with n=6/experimental group."}, "NK1R [4]": {"molecular_target": "T1, NK1R", "assay": "DTH reaction in mice sensitized with DNCB with NK1R agonist SarSP", "format": "in vivo", "conditions": "C57BL/6 (B6) mice sensitized with DNCB in the presence of SarSP (10^−9 M)", "source_text": "The effect of different treatments in B6-WT mice was compared with n=6/experimental group. […] The inflammatory infiltrate was composed of leukocytes including polimorphonuclear neutrophils (PMN) and eosinophils as shown in the inset of FIG. 45A.\nMeans±1SD of 6 mice/experimental group are illustrated, with three independent experiments performed."}, "NK1R [5]": {"molecular_target": "T2, NK1R (Homo sapiens, UniProt P25103)", "T2 construct": "adding SarSP to human mixed leukocyte cultures (MLC) using skin DC as stimulators of allogeneic naïve CD4 T cells; endogenous in cells; host or cells: human skin dendritic cells from skin explants, co-cultured with allogeneic T cells (MLC)", "T2 sequence (P25103 whole entry)": "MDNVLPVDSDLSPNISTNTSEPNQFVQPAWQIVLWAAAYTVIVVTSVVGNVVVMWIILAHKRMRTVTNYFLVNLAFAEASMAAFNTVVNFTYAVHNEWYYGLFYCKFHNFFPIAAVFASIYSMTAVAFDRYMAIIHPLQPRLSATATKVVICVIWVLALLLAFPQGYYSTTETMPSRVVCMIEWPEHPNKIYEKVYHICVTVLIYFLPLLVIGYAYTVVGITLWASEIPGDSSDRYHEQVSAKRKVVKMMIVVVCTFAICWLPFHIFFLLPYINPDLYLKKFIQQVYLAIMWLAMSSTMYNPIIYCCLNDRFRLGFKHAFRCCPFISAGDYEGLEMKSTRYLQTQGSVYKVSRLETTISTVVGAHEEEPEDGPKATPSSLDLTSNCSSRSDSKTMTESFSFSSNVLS", "assay": "Human mixed leukocyte cultures (MLC), skin DC as stimulators of allogeneic naive CD4 T cells, with SarSP", "format": "cell-based", "conditions": "SarSP added to MLC", "source_text": "FIGS. 42A and 42B show human skin DCs express functional NK1R. […] Conventional rigid MNA with pyramid geometry can suffer from limited skin penetration, and poor and unreliable cargo delivery capacity compared to the novel microneedle structures disclosed herein. For example, in some embodiments, the delivery systems disclosed herein integrate biologics into dissolvable carboxymethyl-cellulose (CMC) microneedles with obelisk geometries."}, "[6]": {"assay": "MNA DNBS dose response, ear thickness increase and histology", "format": "in vivo, mouse", "conditions": "MNAs with 25 ng, 50 ng and 100 ng tested; ear thickness increase", "procedure": "These figures illustrate an exemplary MNA DNBS dose response, by indicating an optimal lowest dose of hapten contained in MNAs capable of inducing effective skin acute and chronic inflammation. In particular, FIG. 51A charts MNA DNBS doses as a percentage of ear thickness increase. FIG. 51B provides histological detail of treated ear skin following the application of MNAs with the three different doses of DNBS (25 ng, 50 ng, and 100 ng)."}},
  "note": "Entries after “also recorded” stand apart in the source; their conditions may differ.",
  "data": [
    {"compound": "O=P1(N(CCCl)CCCl)NCCCO1", "note": "(stereo not shown) [Cytoxan®, cyclophosphamide]", "values": [
      {"measurement": "apoptosis of epidermal cells (TUNEL)", "setting": "epidermal cells", "result": "extensive apoptosis of epidermal cells"}
    ]},
    {"compound": "Poly(I:C)", "values": [
      {"measurement": "tumor growth", "setting": "B16 melanoma", "result": "slowed tumor growth"},
      {"measurement": "survival", "setting": "B16 melanoma", "result": 50, "unit": "%"}
    ]},
    {"compound": "COc1cccc2c1C(=O)c1c(O)c3c(c(O)c1C2=O)C[C@@](O)(C(=O)CO)C[C@@H]3O[C@H]1C[C@H](N)[C@H](O)[C@H](C)O1", "note": "[doxorubicin]", "values": [
      {"measurement": "tumor growth", "setting": "B16 melanoma", "result": "slowed tumor growth"},
      {"measurement": "survival", "setting": "B16 melanoma", "result": 30, "unit": "%"}
    ]},
    {"compound": "COc1cc(S(=O)(=O)[O-])c(C)cc1N=Nc1c(O)ccc2cc(S(=O)(=O)[O-])ccc12.[Na+].[Na+]", "note": "[FD&C Red40]", "values": [
      {"measurement": "release of encapsulated dye", "setting": "[1]; dye encapsulated in sustained release polymer", "result": "released slowly over an extended time period"},
      {"measurement": "period of release from depot", "setting": "[1]; dye in underlying layer of sustained release polymer", "result": 10, "unit": "days"}
    ]},
    {"compound": "Cc1cc2nc3ccc(N(C)C)cc3[s+]c2cc1N.[Cl-]", "note": "[Toluidine Blue]", "values": [
      {"measurement": "release of tip-loaded dye", "setting": "[1]; dye in CMC in the needle tip", "result": "released in an initial burst"}
    ]},
    {"compound": "particulate OVA: particulate ovalbumin, model antigen, in CMC microneedle arrays", "values": [
      {"measurement": "OVA-specific CTL activity in vivo", "setting": "[2]", "result": "Significant OVA-specific CTL activity"}
    ]},
    {"compound": "Sar^9 Met(O2)^11—SP [SarSP]", "values": [
      {"measurement": "MC activation and degranulation in skin", "setting": "NK1R [3]; B6-WT mice", "result": "triggered MC activation and degranulation"},
      {"measurement": "inflammatory response in skin", "setting": "NK1R [3]; agent administered alone, B6-WT mice", "result": "did not induce inflammatory response"},
      {"measurement": "inflammatory infiltrate in skin draining lymph node", "setting": "NK1R [3]; co-administration with DNCB", "result": "significantly increases the inflammatory infiltrate"},
      {"measurement": "inflammatory response in skin", "setting": "NK1R [3]; co-administration with DNCB, B6-WT mice", "result": "significantly increased the number of inflammatory cells; also recorded: dramatically increased the magnitude of the inflammatory response and tissue damage"},
      {"measurement": "number of MC in draining lymph nodes", "setting": "NK1R [3]; mouse, in vivo", "result": "induced an increased number of MC"},
      {"measurement": "DTH reactions", "setting": "NK1R [4]", "result": "significantly increased DTH reactions"},
      {"measurement": "IFN-γ secretion", "setting": "NK1R [5]", "result": "significantly augmented"},
      {"measurement": "Tcell proliferation", "setting": "NK1R [5]", "result": "significantly augmented"}
    ]},
    {"compound": "soluble OVA: soluble ovalbumin, model antigen, in CMC microneedle arrays", "values": [
      {"measurement": "OVA-specific CTL activity in vivo", "setting": "[2]", "result": "Significant OVA-specific CTL activity"}
    ]},
    {"compound": "O=[N+]([O-])c1ccc(S(=O)(=O)O)c([N+](=O)[O-])c1", "note": "[DNBS, 2,4-Dinitrobenzenesulfonic acid]", "values": [
      {"measurement": "optimal, lowest dose inducing skin acute and chronic inflammation", "setting": "[6]", "result": 50, "unit": "ng"}
    ]}
  ]
}
